{"source": "paper PMC3445516", "about": "(PLoS ONE, 2012)", "experiment_in_all_cases": "Ambit kinase profiling, competition binding", "key": {"ADCK3": {"biological_target": "T1, ADCK3 (Homo sapiens, UniProt Q8NI60)", "T1 construct": "purchased Ambit Biosciences (KINOMEscan)", "T1 sequence (Q8NI60 163-647)": "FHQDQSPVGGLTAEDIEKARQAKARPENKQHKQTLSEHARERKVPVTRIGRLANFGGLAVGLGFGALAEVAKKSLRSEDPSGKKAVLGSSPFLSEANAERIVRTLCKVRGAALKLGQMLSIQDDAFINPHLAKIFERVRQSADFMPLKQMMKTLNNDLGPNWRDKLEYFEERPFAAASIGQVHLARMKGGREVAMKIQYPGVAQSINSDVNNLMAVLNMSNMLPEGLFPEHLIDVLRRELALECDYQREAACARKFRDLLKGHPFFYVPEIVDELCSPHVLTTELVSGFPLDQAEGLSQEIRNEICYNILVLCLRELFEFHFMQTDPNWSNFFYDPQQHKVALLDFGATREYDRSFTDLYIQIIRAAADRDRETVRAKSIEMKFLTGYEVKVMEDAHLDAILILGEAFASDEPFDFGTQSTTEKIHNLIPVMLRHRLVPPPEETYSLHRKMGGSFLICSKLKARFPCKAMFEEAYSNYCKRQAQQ", "experimental": "(§1) Also included in the kinase profile are four isoforms of PKC (δ, ε, η, θ) and eight isoforms of CAMKs (CAMKIα, δ, γ; CAMKIIα, β, δ, γ; CAMK4).\n(§2) The global kinase profiling experiment was performed by Ambit Biosciences."}, "ADCK4": {"biological_target": "T2, ADCK4 (Homo sapiens, UniProt Q96D53)", "T2 construct": "purchased Ambit Biosciences (KINOMEscan)", "T2 sequence (Q96D53 1-544)": "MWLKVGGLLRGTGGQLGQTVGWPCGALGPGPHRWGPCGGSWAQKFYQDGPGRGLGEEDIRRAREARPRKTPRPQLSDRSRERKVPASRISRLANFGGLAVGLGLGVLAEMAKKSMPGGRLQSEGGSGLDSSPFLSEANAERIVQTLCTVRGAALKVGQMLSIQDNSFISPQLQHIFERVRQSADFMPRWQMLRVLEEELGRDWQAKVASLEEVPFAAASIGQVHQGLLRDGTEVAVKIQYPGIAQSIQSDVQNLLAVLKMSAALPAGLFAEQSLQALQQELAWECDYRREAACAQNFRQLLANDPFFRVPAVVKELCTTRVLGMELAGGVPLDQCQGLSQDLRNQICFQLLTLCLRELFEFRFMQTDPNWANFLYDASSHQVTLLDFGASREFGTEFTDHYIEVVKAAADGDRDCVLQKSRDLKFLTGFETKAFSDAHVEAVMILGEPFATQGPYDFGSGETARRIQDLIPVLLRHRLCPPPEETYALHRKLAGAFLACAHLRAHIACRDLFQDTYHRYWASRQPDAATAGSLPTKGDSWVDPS", "experimental": "as §1, §2"}, "EPHB4": {"biological_target": "T3, EPHB4 (Homo sapiens, UniProt P54760)", "T3 construct": "purchased Ambit Biosciences (KINOMEscan)", "T3 sequence (P54760 16-987)": "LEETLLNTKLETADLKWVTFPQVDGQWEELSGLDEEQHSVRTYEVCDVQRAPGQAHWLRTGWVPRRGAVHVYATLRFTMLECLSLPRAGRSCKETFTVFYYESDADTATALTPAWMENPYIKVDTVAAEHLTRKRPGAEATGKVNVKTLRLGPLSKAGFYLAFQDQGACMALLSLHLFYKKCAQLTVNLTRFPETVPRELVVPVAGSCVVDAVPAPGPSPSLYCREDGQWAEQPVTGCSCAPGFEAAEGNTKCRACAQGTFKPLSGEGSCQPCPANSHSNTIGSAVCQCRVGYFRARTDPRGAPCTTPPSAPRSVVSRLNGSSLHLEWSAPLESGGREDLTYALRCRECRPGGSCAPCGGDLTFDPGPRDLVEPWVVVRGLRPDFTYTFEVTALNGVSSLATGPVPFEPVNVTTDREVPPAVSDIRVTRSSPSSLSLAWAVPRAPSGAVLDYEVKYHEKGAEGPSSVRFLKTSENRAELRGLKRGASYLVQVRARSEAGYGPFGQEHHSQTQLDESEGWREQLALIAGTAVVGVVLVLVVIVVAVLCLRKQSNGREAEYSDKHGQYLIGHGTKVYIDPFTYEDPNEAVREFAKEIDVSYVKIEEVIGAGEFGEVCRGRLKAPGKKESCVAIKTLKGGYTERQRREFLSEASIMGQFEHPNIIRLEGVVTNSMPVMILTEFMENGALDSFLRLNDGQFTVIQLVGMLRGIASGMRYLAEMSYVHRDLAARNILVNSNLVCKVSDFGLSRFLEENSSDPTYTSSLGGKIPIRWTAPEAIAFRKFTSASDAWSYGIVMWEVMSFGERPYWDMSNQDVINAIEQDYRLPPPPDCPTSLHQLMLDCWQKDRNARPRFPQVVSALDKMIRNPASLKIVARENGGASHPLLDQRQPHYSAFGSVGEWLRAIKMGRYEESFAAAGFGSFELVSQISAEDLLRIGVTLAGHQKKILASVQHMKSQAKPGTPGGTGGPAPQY", "experimental": "as §1, §2"}, "MRCKA": {"biological_target": "T4, MRCKA (Homo sapiens, UniProt Q5VT25)", "T4 construct": "purchased Ambit Biosciences (KINOMEscan)", "T4 sequence (Q5VT25 whole entry)": "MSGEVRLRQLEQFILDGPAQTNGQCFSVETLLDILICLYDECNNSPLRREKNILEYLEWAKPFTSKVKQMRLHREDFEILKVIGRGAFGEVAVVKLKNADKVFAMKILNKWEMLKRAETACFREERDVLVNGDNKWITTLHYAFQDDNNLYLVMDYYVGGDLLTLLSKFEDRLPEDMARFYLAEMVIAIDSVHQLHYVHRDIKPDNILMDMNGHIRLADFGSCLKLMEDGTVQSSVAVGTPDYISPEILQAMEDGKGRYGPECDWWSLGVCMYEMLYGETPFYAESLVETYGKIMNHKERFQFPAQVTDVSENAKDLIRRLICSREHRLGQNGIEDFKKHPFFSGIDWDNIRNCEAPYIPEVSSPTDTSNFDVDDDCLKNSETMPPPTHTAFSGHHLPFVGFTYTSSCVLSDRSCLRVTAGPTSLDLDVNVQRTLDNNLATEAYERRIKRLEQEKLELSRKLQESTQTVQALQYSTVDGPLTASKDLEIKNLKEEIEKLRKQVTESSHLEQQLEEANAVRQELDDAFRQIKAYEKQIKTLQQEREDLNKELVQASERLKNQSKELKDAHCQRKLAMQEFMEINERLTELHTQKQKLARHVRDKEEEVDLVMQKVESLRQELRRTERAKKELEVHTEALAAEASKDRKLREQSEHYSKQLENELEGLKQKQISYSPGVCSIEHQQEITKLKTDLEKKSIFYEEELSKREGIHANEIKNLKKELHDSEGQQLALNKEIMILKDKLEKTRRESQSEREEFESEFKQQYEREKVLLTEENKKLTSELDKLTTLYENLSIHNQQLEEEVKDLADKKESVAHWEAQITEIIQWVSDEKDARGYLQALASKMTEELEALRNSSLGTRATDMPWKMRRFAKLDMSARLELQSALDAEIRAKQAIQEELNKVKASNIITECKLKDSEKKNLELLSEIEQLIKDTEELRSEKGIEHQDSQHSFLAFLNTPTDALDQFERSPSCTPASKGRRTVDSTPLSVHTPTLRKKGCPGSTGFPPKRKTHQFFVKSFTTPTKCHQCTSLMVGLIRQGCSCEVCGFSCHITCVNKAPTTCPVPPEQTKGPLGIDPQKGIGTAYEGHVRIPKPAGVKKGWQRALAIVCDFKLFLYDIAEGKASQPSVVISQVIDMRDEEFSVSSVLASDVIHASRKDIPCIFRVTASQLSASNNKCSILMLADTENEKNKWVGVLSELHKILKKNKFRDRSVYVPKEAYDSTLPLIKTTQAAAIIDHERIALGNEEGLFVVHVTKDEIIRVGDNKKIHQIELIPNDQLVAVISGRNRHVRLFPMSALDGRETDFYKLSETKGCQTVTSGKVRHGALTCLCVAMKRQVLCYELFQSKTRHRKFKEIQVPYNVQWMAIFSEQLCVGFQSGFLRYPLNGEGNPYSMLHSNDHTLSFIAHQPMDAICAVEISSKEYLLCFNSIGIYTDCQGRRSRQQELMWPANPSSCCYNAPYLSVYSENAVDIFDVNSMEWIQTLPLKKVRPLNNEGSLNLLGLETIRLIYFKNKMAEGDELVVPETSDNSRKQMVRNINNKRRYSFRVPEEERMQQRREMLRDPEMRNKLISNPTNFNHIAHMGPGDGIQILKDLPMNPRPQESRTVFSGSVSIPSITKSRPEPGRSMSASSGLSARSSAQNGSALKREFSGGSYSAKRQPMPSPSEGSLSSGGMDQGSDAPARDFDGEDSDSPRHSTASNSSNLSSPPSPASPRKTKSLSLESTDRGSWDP", "experimental": "as §1, §2"}, "NLK": {"biological_target": "T5, NLK (Homo sapiens, UniProt Q9UBE8)", "T5 construct": "purchased Ambit Biosciences (KINOMEscan)", "T5 sequence (Q9UBE8 1-527)": "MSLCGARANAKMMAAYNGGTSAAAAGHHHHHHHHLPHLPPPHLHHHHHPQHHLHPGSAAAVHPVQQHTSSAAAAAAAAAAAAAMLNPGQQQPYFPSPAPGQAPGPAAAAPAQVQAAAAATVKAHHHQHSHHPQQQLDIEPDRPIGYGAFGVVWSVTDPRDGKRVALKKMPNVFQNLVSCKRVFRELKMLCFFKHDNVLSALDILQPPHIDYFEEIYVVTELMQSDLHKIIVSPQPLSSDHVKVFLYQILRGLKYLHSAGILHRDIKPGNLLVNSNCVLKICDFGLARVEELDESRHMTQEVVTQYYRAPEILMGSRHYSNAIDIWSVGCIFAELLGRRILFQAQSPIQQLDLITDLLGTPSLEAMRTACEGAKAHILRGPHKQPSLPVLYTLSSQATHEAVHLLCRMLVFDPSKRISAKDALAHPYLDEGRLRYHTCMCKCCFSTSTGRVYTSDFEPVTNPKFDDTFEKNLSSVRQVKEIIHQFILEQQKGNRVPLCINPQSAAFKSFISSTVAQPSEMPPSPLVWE", "experimental": "as §1, §2"}, "PCTK2": {"biological_target": "T6, PCTK2 (Homo sapiens, UniProt Q00537)", "T6 construct": "purchased Ambit Biosciences (KINOMEscan)", "T6 sequence (Q00537 whole entry)": "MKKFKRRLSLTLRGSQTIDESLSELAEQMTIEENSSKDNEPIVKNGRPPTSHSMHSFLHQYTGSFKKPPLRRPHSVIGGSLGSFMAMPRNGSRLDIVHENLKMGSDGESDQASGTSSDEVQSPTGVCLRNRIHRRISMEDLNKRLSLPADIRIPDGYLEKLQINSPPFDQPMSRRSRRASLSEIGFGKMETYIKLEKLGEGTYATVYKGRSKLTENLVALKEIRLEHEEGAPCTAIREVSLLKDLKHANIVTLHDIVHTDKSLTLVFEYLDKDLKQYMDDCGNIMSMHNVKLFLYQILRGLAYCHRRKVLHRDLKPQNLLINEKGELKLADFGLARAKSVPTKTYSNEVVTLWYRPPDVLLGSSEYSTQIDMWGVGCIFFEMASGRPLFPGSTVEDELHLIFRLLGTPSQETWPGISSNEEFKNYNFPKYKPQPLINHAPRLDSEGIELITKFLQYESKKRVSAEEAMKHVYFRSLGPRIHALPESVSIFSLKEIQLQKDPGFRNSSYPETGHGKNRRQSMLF", "experimental": "as §1, §2"}, "SLK": {"biological_target": "T7, SLK (Homo sapiens, UniProt Q9H2G2)", "T7 construct": "purchased Ambit Biosciences (KINOMEscan)", "T7 sequence (Q9H2G2 whole entry)": "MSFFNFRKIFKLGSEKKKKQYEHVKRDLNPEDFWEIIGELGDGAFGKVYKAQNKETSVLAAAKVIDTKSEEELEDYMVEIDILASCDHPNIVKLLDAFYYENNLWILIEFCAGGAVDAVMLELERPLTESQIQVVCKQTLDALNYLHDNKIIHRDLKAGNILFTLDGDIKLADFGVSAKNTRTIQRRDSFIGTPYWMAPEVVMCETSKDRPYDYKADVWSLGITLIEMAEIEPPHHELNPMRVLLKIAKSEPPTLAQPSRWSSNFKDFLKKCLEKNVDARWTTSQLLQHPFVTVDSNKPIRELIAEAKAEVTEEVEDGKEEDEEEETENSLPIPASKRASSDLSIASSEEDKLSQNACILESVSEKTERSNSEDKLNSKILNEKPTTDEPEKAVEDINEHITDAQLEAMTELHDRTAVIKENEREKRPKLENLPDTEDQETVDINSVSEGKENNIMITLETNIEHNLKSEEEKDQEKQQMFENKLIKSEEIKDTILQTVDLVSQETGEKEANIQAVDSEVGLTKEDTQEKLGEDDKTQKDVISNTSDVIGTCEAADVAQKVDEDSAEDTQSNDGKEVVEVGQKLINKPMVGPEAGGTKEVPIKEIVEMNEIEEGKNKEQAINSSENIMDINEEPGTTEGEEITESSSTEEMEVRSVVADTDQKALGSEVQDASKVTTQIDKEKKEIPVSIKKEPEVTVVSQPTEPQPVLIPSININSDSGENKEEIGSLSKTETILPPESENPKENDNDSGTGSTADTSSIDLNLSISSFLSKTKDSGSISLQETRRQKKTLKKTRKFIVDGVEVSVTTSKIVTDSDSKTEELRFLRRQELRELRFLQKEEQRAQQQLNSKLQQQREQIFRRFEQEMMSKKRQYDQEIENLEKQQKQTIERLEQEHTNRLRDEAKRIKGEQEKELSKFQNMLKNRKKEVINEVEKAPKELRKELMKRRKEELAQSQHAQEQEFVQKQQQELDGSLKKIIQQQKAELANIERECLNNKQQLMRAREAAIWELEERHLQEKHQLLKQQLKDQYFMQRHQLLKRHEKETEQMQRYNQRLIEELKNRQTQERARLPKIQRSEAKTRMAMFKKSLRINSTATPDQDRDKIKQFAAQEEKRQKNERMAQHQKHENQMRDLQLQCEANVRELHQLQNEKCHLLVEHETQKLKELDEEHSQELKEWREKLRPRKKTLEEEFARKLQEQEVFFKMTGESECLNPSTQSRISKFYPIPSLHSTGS", "experimental": "as §1, §2"}, "SRC": {"biological_target": "T8, SRC (Homo sapiens, UniProt P12931)", "T8 construct": "purchased Ambit Biosciences (KINOMEscan)", "T8 sequence (P12931 whole entry)": "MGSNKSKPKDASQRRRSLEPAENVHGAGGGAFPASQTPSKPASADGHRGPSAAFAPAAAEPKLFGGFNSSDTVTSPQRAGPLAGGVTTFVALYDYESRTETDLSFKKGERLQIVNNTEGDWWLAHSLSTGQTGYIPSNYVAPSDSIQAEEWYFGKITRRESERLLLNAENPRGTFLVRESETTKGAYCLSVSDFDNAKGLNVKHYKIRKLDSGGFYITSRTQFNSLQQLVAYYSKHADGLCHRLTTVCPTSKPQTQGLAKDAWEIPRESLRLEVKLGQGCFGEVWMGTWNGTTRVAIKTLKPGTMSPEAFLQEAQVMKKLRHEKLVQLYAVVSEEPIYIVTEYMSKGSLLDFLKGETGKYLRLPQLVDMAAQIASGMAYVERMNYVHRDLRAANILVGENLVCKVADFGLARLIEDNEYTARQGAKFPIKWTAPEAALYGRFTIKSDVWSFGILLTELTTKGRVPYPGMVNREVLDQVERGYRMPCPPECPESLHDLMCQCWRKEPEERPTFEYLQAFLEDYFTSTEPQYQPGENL", "experimental": "as §1, §2"}}, "note": "Where two headings read alike, the source gives them in different places.", "data": [{"compound": "Fc1ccc(-c2c(-c3ccncc3)[nH]c3nccnc23)cc1", "note": "[Compound 122]", "values": [{"measurement": "inhibition at 10 µM", "setting": "ADCK3; ADCK3, 10 µM, read-out: % Competition", "value": 83, "unit": "%"}, {"measurement": "inhibition at 10 µM", "setting": "ADCK4; ADCK4, 10 µM, read-out: % Competition", "value": 94, "unit": "%"}, {"measurement": "inhibition at 10 µM", "setting": "EPHB4; EPHB4, 10 µM, read-out: % Competition", "value": 72, "unit": "%"}, {"measurement": "inhibition at 10 µM", "setting": "MRCKA; MRCKA, 10 µM, read-out: % Competition", "value": 99, "unit": "%"}, {"measurement": "inhibition at 10 µM", "setting": "NLK; NLK, 10 µM, read-out: % Competition", "value": 98, "unit": "%"}, {"measurement": "inhibition at 10 µM", "setting": "PCTK2; PCTK2, 10 µM, read-out: % Competition", "value": 78, "unit": "%"}, {"measurement": "inhibition at 10 µM", "setting": "SLK; SLK, 10 µM, read-out: % Competition", "value": 80, "unit": "%"}, {"measurement": "inhibition at 10 µM", "setting": "SRC; SRC, 10 µM, read-out: % Competition", "value": 87, "unit": "%"}]}, {"compound": "CC(O)CNc1cc(-c2[nH]c3cccnc3c2-c2ccc(F)cc2)ccn1", "note": "(stereo not drawn) [Compound 140]", "values": [{"measurement": "inhibition at 10 µM", "setting": "ADCK3; read-out: % Competition", "value": 90, "unit": "%"}, {"measurement": "inhibition at 10 µM", "setting": "ADCK4; read-out: % Competition", "value": 98, "unit": "%"}, {"measurement": "inhibition at 10 µM", "setting": "EPHB4; read-out: % Competition", "value": "< 50", "unit": "%"}, {"measurement": "inhibition at 10 µM", "setting": "MRCKA; read-out: % Competition", "value": "< 50", "unit": "%"}, {"measurement": "inhibition at 10 µM", "setting": "NLK; read-out: % Competition", "value": 91, "unit": "%"}, {"measurement": "inhibition at 10 µM", "setting": "PCTK2; read-out: % Competition", "value": "< 50", "unit": "%"}, {"measurement": "inhibition at 10 µM", "setting": "SLK; read-out: % Competition", "value": "< 50", "unit": "%"}, {"measurement": "inhibition at 10 µM", "setting": "SRC; read-out: % Competition", "value": "< 50", "unit": "%"}]}, {"compound": "Fc1ccc(-c2c(-c3ccncc3)[nH]c3nccnc23)cc1", "note": "[RO1155697-000-005]", "values": [{"measurement": "inhibition at 10 µM", "setting": "ADCK3; ADCK3, compound concentration 10 uM, read-out: Percent Competition", "value": 83, "unit": "%"}, {"measurement": "inhibition at 10 µM", "setting": "ADCK4; ADCK4, compound concentration 10 uM, read-out: Percent Competition", "value": 94, "unit": "%"}, {"measurement": "inhibition at 10 µM", "setting": "EPHB4; EPHB4, compound concentration 10 uM, read-out: Percent Competition", "value": 72, "unit": "%"}, {"measurement": "inhibition at 10 µM", "setting": "MRCKA; MRCKA, compound concentration 10 uM, read-out: Percent Competition", "value": 99, "unit": "%"}, {"measurement": "inhibition at 10 µM", "setting": "NLK; NLK, compound concentration 10 uM, read-out: Percent Competition", "value": 98, "unit": "%"}, {"measurement": "inhibition at 10 µM", "setting": "PCTK2; PCTK2, compound concentration 10 uM, read-out: Percent Competition", "value": 78, "unit": "%"}, {"measurement": "inhibition at 10 µM", "setting": "SLK; SLK, compound concentration 10 uM, read-out: Percent Competition", "value": 80, "unit": "%"}, {"measurement": "inhibition at 10 µM", "setting": "SRC; SRC, compound concentration 10 uM, read-out: Percent Competition", "value": 87, "unit": "%"}]}]}
